One data set deals with several human cell lines. Description: Cytotoxicity / growth inhibition of several human cell lines. It counts as cell-based. Conditions: in words.
A further data set is described as follows: Solubility properties. Type of data set: physicochemical. Conditions: relative to the natural product; in words.
For another data set, the system named is P-388. Description: Inhibition of cell growth, P-388. Type of data set: cell-based. The procedure: (§1) Inhibition of Cell Growth and Macromolecule Biosynthesis in -Several
(§2) Cancerous Human Cell Lines by Hormothamnione (1)
(§3) ^a ID50 is the drug concentration required to inhibit cell growt
(§4) to 50% of control levels.
(§5) Macromolecule biosynthesis in the presence of hormothamnion was measured via radioactive precursor incorporation studies using HL-60 and KB cell lines.

The next data set concerns HL-60. Description: Inhibition of cell growth, HL-60. Type of data set: cell-based, human. The method, then:
as §1, §2, §3, §4, §5

The subject of the next data set is DNA synthesis, HL-60. Kind of data set: Inhibition of DNA biosynthesis in HL-60 (3H-thymidine incorporation). Type of data set: cell-based. Conditions: Homo sapiens, 3H-thymidine pulse label, read-out: ID50 DNA. The method, then:
(§6) ^b The percentages of macromolecule biosynthesis inhibition were
(§7) calculated from the specific activities of incorporated precursors (c-e)
(§8) into 10^6 cells in drug treated as versus control cells. ID50
(§9) values were obtained by plotting the logarithmic drug concentrations
(§10) against the percentage inhibition of macromolecule biosynthesis.
(§11) ^c Exponentially growing cells pulse labeled with 1 μCi of ^3
(§12) Hthymidine (16.6 Ci/mmole) per ml of cell suspension.
as §5

Another data set relates to RNA synthesis, HL-60. Kind of data set: Inhibition of RNA biosynthesis in HL-60 (5-3H-uridine incorporation). Conditions: Homo sapiens, 5-3H-uridine pulse label, read-out: ID50 RNA. Type of data set: cell-based. The method, then:
as §6, §7, §8, §9, §10
(§13) ^d Exponentially growing cells pulse labeled with 2 μCi [5^3
(§14) Huridine (28 Ci/mmole) per ml of cell suspension.
as §5

Another data set concerns Protein synthesis, HL-60. Description: Inhibition of protein biosynthesis in HL-60 (3H-L-leucine incorporation). Conditions: Homo sapiens, 3H-L-leucine pulse label, read-out: ID50 Protein. It counts as cell-based. The method, then:
as §6, §7, §8, §9, §10
(§15) ^e Exponentially growing cells pulse labeled with 1 μCi of ^3
(§16) HL-leucine (130 Ci/mmole) per ml of cell suspension.
as §5

A further data set deals with DNA synthesis, KB. Kind of data set: Inhibition of DNA biosynthesis in KB (3H-thymidine incorporation). It counts as cell-based. Conditions: Homo sapiens, 3H-thymidine pulse label, read-out: ID50 DNA. The procedure:
as §6, §7, §8, §9, §10, §11, §12, §5

In another data set the test system is RNA synthesis, KB. Kind of data set: Inhibition of RNA biosynthesis in KB (5-3H-uridine incorporation). Type of data set: cell-based. Conditions: Homo sapiens, 5-3H-uridine pulse label, read-out: ID50 RNA. The procedure: as §6, §7, §8, §9, §10, §13, §14, §5
A further data set deals with Protein synthesis, KB. Kind of data set: Inhibition of protein biosynthesis in KB (3H-L-leucine incorporation). Type of data set: cell-based. Conditions: Homo sapiens, 3H-L-leucine pulse label, read-out: ID50 Protein. The procedure:
as §6, §7, §8, §9, §10, §15, §16, §5

In the next data set the test system is RNA synthesis. Kind of data set: Macromolecule biosynthesis: inhibition of RNA synthesis (mode of action). It counts as cell-based, human. Conditions: in words. The method, then: as §6, §7, §8, §9, §10, §13, §14, §5
The test system of another data set is Bacillus subtilus. Description: Paper disc-agar plate antimicrobial test. Type of data set: cell-based.
The subject of the next data set is gram positive. Description: Gram positive antimicrobial activity. Conditions: in words. Type of data set: cell-based.

This is an account of results in patent US4935529A, “Cytoxic substances from the marine cyanophyte hormothamnion enteromorphoides grunow” (State of Oregon acting by and through the Oregon State …, priority 1989, dated 1990).

Each structure is given as a SMILES string. In brackets after ≈: the same amount, converted by molar mass. Entries after “also recorded” stand apart in the source; their conditions may differ.

For the molecule `COc1cc(O)c2c(=O)c(C)c(/C=C/c3cc(O)cc(O)c3)oc2c1OC` [compound of formula (3)], the “inhibited the growth of several human cell lines” value in the data set on several human cell lines is “inhibited the growth of several human cell lines”. For the same molecule, the “effect on growth compared with hormothamnion” value in the data set with several human cell lines (relative to hormothamnion) was “less than observed with hormothamnion”.

As to `COc1c(OC)c(OC(C)=O)c2c(=O)c(C)c(/C=C/c3cc(OC(C)=O)cc(OC(C)=O)c3)oc2c1OC` [derivative (2)], the solubility properties result in “Solubility properties” is recorded as “more favorable”.

Regarding `COc1c(OC)c(O)c2c(=O)c(C)c(/C=C/c3cc(O)cc(O)c3)oc2c1OC` [hormothamnion], the IC50 in the data set on P-388 (P388, P-388, read-out: ID50 Cell Growth) is 0.0046 µg/mL (≈ 0.0115 µM); in the data set on HL-60 (Homo sapiens, read-out: ID50 Cell Growth), 0.0001 µg/mL (≈ 0.00025 µM); with DNA synthesis, HL-60, 0.3 µg/mL (≈ 0.749 µM); in the data set on RNA synthesis, HL-60, 0.001 µg/mL (≈ 0.0025 µM); with Protein synthesis, HL-60, above 0.5 µg/mL; in the data set with DNA synthesis, KB, 0.53 µg/mL (≈ 1.32 µM). In addition, the IC50 in the data set on RNA synthesis, KB is 0.14 µg/mL (≈ 0.35 µM); in the data set with Protein synthesis, KB it was above 0.5 µg/mL. Also, in the data set on P-388 (in words), the “cytotoxic agent to P388 lymphocytic leukemia” value is “potent”. In addition, in the data set on HL-60 (in words), the “cytotoxic agent to HL-60 human promyelocytic leukemia” value is listed as “potent”. In addition, in the data set with several human cell lines, the “cytotoxin to several human cancerous cell lines” value was “potent cytotoxin”. In addition, the “inhibition of RNA synthesis (mode of cytotoxic action)” value is given as “appears to operate via inhibition of RNA synthesis; also recorded: A major mode of cytotoxic action of hormothamnion appears to be by inhibition of RNA synthesis” in the data set with RNA synthesis and “selective inhibition of RNA synthesis” in the data set with RNA synthesis (listed as Hormothamnion). This molecule showed a zone of inhibition at 25 µg/disc with Bacillus subtilus (25 μg per 6 mm paper disc) of 8 mm. In the data set on Bacillus subtilus (100 μg per 6 mm paper disc), this molecule came in with a zone of inhibition at 100 µg/disc of 10 mm. Moreover, the “gram positive antimicrobial activity” value in the data set on gram positive is “minimal”.
